According to article PMC5826917, “A small molecule inhibitor of Nicotinamide N-methyltransferase for the treatment of metabolic disorders” (Scientific Reports, 2018):

Experiments:
[1] = target: Adenosine Receptor 1 (ADORA1) (Homo sapiens, UniProt P30542); experiment: Selectivity panel: ADORA1; type: cell-based
[2] = target: Dopamine Receptor 2 Short (D2S) (Homo sapiens, UniProt P14416); experiment: Selectivity panel: D2S; type: cell-based
Protocol: (§1) Supplement 41598_2018_22081_MOESM1_ESM.docx, table 2: Supplementary table 2: Selectivity profile of JBSNF-000088 (at 10 µM) vs a panel of 34 receptors, channels and enzymes. | column: E% (agonistic); I% (antagonistic or inhibitory)

[3] = target: Serotonin Receptor 1A (5HT1A) (Homo sapiens, UniProt P08908); experiment: Selectivity panel: 5HT1A; type: cell-based
Serotonin Receptor 1A (5HT1A), sequence (P08908 whole entry): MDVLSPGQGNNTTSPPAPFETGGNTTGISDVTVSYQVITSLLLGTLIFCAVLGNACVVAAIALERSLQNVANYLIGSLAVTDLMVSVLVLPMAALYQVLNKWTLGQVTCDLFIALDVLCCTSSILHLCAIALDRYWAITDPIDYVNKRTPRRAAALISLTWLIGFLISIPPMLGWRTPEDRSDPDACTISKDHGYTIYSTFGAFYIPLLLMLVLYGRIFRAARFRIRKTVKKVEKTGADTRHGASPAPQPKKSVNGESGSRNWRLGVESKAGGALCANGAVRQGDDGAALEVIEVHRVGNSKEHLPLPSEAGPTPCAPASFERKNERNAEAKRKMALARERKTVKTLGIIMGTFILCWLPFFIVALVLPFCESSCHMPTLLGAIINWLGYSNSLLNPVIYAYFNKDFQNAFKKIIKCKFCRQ
Protocol: as §1

[4] = tested on: Nicotinic AChR Receptor Muscle-Type; experiment: Selectivity panel: nAChR muscle-type; type: binding; settings: 10 µM
[5] = target: Adenosine Receptor 2A (ADORA2A) (Homo sapiens, UniProt P29274); experiment: Selectivity panel: ADORA2A; type: cell-based
Adenosine Receptor 2A (ADORA2A), sequence (P29274 whole entry): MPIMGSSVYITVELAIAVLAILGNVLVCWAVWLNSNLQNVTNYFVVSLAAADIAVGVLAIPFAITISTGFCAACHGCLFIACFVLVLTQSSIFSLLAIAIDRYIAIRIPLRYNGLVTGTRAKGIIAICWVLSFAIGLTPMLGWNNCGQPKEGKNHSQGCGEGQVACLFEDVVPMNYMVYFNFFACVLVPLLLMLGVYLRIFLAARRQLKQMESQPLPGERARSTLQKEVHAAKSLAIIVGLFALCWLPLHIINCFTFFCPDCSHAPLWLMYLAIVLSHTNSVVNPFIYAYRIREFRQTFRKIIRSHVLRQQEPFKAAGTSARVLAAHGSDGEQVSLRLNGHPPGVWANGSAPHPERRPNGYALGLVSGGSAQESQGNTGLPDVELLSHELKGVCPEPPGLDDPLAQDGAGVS

mouse NNMT (mNNMT) = target: T1, mouse NNMT (mNNMT) (Mus musculus, UniProt O55239); experiment: Fluorescence based NNMT enzymatic assay (mouse); settings: fluorescence based biochemical assay
T1 construct: The full length NNMT proteins (1–264 amino acids) of human & mouse; 6 × His tag (N); TEV cleavage site (ENLYFQG) (N); made in house; host or cells: E. coli Rosetta2(DE3)pLysS
T1 sequence (O55239 whole entry, the tested form may be a part): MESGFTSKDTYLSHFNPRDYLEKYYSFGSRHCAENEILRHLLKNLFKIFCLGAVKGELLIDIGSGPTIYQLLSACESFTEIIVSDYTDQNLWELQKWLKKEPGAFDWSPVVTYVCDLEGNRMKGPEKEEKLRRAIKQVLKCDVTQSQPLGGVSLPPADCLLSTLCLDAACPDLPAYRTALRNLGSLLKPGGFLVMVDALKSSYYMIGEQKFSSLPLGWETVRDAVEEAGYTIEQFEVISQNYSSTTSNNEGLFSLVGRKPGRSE
Protocol: (§2) NNMT activity was measured with the fluorescence enzymatic assay[22],[23]. MNA formed in the NNMT reaction reacts with acetophenone in the presence of KOH and formic acid and forms a fluorescent product 2, 7- naphthyridine. JBSNF-000088 was screened using human, mouse and monkey NNMT enzymes. Different concentrations of inhibitors were preincubated along with the enzyme for 30 minutes at room temperature. Reaction was initiated by addition of SAM and nicotinamide mixture (7 µM, 20 µM, 8 µM SAM and 6 µM, 20 µM, 9 µM nicotinamide for human, mouse and monkey NNMT assays respectively) for 60 minutes at 37 °C. The final assay reaction mixture contained a buffer of 100 mM Tris Hcl pH 7.5, 0.04% BSA, 2 mM dithiothreitol and 1% DMSO. At the end of the incubation, the reaction was stopped by the addition of ethanol: acetophenone mix (75% ethanol: 25% acetophenone) and 5 M potassium hydroxide prepared with 50% ethanol. The reaction was incubated for 15 minutes following which 100 µL of 60% formic acid was added. […] The fluorescent product 2, 7- naphthyridine was measured using a Tecan reader with excitation at 375 nm and emission at 430 nm. The IC50 values were determined by fitting the inhibition curves (percent inhibition versus inhibitor concentration) using a four parametric sigmoidal dose response using GraphPad Prism software.

[6] = tested on: Glycine Receptor (strychnine-sensitive); experiment: Selectivity panel: glycine receptor; type: binding; settings: 10 µM
monkey NNMT (mkNNMT) = target: T2, monkey NNMT (mkNNMT) (Macaca mulatta, UniProt F7ERX8); experiment: Fluorescence based NNMT enzymatic assay (monkey); settings: fluorescence based biochemical assay
T2 construct: made in house
T2 sequence (F7ERX8 1-264): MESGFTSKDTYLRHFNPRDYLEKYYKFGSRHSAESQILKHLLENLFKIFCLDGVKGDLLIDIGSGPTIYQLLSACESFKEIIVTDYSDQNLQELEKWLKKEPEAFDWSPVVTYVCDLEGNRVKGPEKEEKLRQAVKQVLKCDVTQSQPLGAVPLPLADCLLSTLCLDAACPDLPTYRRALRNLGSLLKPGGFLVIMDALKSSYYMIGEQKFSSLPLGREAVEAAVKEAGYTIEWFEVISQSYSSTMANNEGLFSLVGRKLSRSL
Protocol: as §2

NNMT = target: T3, NNMT (Homo sapiens, UniProt P40261); experiment: biochemical; set-up: The full length NNMT proteins (1–264 amino acids) of human & mouse; 6 × His tag (N); TEV cleavage site (ENLYFQG) (N); made in house; host or cells: E. coli Rosetta2(DE3)pLysS
T3 sequence (P40261 1-264): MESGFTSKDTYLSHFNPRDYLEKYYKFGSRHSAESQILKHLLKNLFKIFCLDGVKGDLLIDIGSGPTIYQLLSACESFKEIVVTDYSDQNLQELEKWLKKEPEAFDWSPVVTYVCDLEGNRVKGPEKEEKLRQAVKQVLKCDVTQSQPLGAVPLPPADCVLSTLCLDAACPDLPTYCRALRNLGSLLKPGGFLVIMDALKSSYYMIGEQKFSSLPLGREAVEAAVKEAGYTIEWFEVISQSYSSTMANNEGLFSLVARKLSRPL
Protocol: PE-Sciex API-4000 triple quadrupole (PerkinElmerSciex Instruments, Boston, MA) mass spectrometer was employed for this analysis. […] Detection of the ions was performed in the multiple reaction monitoring (MRM) mode, monitoring the transition of the m/z 137 precursor ion to the m/z 92 product ion for MNA and m/z 141 precursor ion to the m/z 84 product ion for d4-MNA (internal standard).
The supernatant was separated and transferred to pre-labeled HPLC vials and analyzed by LC-MS/MS system.
The final assay reaction mixture contained a buffer of 100 mM Tris Hcl pH 7.5, 0.04% BSA, 2 mM dithiothreitol and 1% DMSO.

in vitro [7] = settings: human, hepatocytes
in vitro [8] = settings: mouse, microsomes, Metabolic stability mouse microsomes (% remaining)
[9] = target: Acetylcholinesterase (AChE) (Homo sapiens, UniProt P22303); experiment: Selectivity panel: AChE; type: biochemical; settings: read-out: I% (antagonistic or inhibitory), AChE
Acetylcholinesterase (AChE), sequence (P22303 32-614): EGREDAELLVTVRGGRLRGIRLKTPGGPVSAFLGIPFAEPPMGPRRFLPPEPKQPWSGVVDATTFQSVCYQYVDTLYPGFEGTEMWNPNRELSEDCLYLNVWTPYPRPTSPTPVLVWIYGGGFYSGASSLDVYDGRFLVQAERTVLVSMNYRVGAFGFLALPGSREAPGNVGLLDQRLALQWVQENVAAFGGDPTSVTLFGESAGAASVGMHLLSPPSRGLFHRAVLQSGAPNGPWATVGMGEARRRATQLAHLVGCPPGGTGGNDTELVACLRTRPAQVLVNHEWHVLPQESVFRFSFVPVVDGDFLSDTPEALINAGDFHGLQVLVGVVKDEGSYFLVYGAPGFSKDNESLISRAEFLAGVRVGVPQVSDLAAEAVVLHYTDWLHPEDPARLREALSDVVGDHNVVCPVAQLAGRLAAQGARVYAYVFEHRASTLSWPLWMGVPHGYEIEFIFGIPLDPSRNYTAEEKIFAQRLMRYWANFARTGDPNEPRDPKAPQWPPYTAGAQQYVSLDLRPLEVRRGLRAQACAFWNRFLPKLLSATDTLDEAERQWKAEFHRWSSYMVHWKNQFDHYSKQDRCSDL
Protocol: Supplement 41598_2018_22081_MOESM1_ESM.docx, table 2: Supplementary table 2: Selectivity profile of JBSNF-000088 (at 10 µM) vs a panel of 34 receptors, channels and enzymes. | column: I% (antagonistic or inhibitory)

Dopamine Receptor 2 Short (D2S), sequence (P14416 1-414 isoform P14416-2): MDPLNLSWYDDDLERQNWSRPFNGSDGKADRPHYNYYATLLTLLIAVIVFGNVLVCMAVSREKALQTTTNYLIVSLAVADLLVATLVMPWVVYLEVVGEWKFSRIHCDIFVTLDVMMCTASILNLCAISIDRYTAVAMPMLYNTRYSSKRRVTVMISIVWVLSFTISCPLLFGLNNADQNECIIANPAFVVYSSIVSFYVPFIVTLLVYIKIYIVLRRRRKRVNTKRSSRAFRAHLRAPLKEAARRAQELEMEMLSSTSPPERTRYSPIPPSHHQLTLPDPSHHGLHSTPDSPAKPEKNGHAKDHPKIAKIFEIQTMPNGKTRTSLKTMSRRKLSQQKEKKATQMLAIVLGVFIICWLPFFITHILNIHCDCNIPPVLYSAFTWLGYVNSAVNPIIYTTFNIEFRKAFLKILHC
Adenosine Receptor 1 (ADORA1), sequence (P30542 whole entry): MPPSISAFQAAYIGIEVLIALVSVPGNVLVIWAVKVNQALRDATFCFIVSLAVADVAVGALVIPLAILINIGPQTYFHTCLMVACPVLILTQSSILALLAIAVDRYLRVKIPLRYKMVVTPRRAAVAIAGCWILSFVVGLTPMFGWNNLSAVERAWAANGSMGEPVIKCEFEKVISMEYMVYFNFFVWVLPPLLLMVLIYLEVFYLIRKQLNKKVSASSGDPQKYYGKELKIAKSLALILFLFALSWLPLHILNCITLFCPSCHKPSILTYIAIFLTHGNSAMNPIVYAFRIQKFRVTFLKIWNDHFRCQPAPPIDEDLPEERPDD

## COc1ccc(C(N)=O)cn1 [JBSNF-000088, 6-methoxynicotinamide]
[1]; 10 µM
  E% (agonistic), ADORA1: -3%
[1]; read-out: I% (antagonistic or inhibitory), ADORA1
  inhibition at 10 µM: -1%
[2]; 10 µM
  E% (agonistic), D2S: -3%
[2]; read-out: I% (antagonistic or inhibitory), D2S
  inhibition at 10 µM: 12%
[3]; 10 µM
  E% (agonistic), 5HT1A: 5%
[3]; read-out: I% (antagonistic or inhibitory), 5HT1A
  inhibition at 10 µM: -13%
[4]
  I% (antagonistic or inhibitory), Nicotinic AChR Receptor Muscle-Type: -2%
[5]; 10 µM
  E% (agonistic), ADORA2A: 4%
[5]; read-out: I% (antagonistic or inhibitory), ADORA2A
  inhibition at 10 µM: 2%
Mouse NNMT (mNNMT)
  IC50: 5 µM
[6]
  I% (antagonistic or inhibitory), Glycine Receptor (strychnine-sensitive): -7%
Monkey NNMT (mkNNMT)
  IC50: 2.8 µM
NNMT
  IC50: 2.4 µM
In vitro [7]
  remaining at 0.5 h: > 70%
In vitro [8]
  remaining at 0.5 h: > 70%
[9]
  inhibition at 10 µM: 2%
